According to patent US8815925B2, “Use of combination preparations comprising antifungal agents” (priority 2006, dated 2014):

How the values were obtained:
Candida vulvovaginitis = test system: Candida vulvovaginitis
Method: The treatment was by topical administration of suitable pharmaceutical substance combinations on the skin, or on the mucosae of the genitourinary tract and of the oropharynx, respectively. […]
(§1) Therapy with an ointment combination of Clotrimazole/Diclofenac-Na
Single dose: 5 mg of Diclofenac-Na/20 mg of Clotrimazole
Dosage regimen: initially (3 days) 3×/day ointment strips of 2.5 cm locally applied in vulva and vagina, subsequently once per day, for 4 days.
patient, suffering from chronic-recurrent Candida vulvovaginitis for years (>10 recurrences/year), otherwise healthy, prior treatment both topical (Clotrimazole, Miconazole) and systemically (Fluconazole, several times, also long-term therapy and therapy of the partner).
Initial therapy: Clotrimazole/Diclofenac (25/25 mg) supp. for 2 days, subsequently
Clotrimazole/Diclofenac as ointment as described in Case 1, for 3 days. […]

[1] = test system: diaper thrush (Candida mycosis)
Source text: The treatment was by topical administration of suitable pharmaceutical substance combinations on the skin, or on the mucosae of the genitourinary tract and of the oropharynx, respectively.
as §1

[2] = test system: chronic-recurrent vulvovaginitis; settings: Fluconazol 150 mg orally, long-term regimen; cited from earlier work

SMILES: Clc1ccccc1C(c1ccccc1)(c1ccccc1)n1ccnc1 [Clotrimazole]
- response to local treatment (monotherapy) (Candida vulvovaginitis; Case 1, during pregnancy, before the combination therapy): complete therapy resistance
- response to monotherapy (Candida vulvovaginitis; Case 2, 8 days of therapy, before the combination therapy): low-grade improvement
- improvement by conventional local therapy (summary) (Candida vulvovaginitis; first and third cases): no improvement
- course of curing under monotherapy (summary) (Candida vulvovaginitis; second case, 8 days of intensive therapy): highly retarded
- clinical picture under monotherapy (summary) ([1]; first diaper thrush case): marked deterioration
- healing under monotherapy (summary) ([1]; second (mild) diaper thrush case): healing after three days

SMILES: OC(Cn1cncn1)(Cn1cncn1)c1ccc(F)cc1F [Fluconazol]
- cases that become recurrent after discontinuation [2]: about 50%
